Patent US8629275B2, “AHCY hydrolase inhibitors for treatment of hyper homocysteinemia” (Merck Sharp & Dohme Corp., priority 2008, dated 2014)

Experiments:
[1] = biological target: recombinant expressed human or mouse AHCY enzyme (UniProt P23526); assay: In vitro AHCY activity assay (ThioGlo1 fluorescence, hydrolysis of SAH); format: biochemical; conditions: Example 1 average of n=3, Example 2 n=1
Description: In vitro AHCY Activity Assay
The AHCY enzyme assay is based on the principle of fluorescence emission following incubation of a reactive dye with the products of an AHCY catalyzed reaction. The reactive dye (Thioglo1) binds homocysteine through its thiol-containing moiety. The products of the AHCY catalyzed reaction, adenosine and homocysteine, are produced from the hydrolysis of SAH (s-adenosylhomocysteine) through AHCY's hydrolase activity.
The reaction is optimized in 96-, 384-, 1536- and 3456-assay plate formats, with recombinant expressed human or mouse AHCY enzyme. When run under initial velocity conditions, the assay is suitable for IC50 and % inhibition calculations.
• 1) ThioGlo1 (catalog 595501, Calbiochem); 100 mM in DMSO • 2) SAH (catalog A-9384, Sigma); 4.69 mM with 0.06 N HCl • 3) Aristeromycin (catalog A-0928, Sigma); 100 mM in DMSO • 4) NAD (catalog 43410, Sigma); 14.5 mM in water • 5) EDTA in 500 mM pH 8 (catalog BP2482-100, Fisher) • 6) DTT stock 200 mM in water • 7) AHCY enzyme (diluted with 100 mM tris pH7.5) Dilutions Immediately Prior to use: • 1. SAH 750 μM (10×) (dilute with 100 mM Tris pH 7.5) • 2. Aristeromycin (10×) (dilute to 1 mM with 100 mM Tris pH7.5) • 3. ThioGlo1 (10×) (dilute to 100 μM in Tris pH7.5) • 4. AHCY assay buffer (3.3×): 3 μM DTT, 150 μM NAD, 3 mM EDTA Protocol: As per 96-Assay Plate Well • 1. […] Read plate (Ex 380 Em 510)

AHCY = biological target: T1, AHCY (Homo sapiens, UniProt P23526); assay: Cell-based assay of AHCY inhibition (secreted homocysteine); conditions: secreted homocysteine from HEK293 and/or SH-SY5Y cells, 72 hrs; Example 1 average of n=4, Example 2 n=1
T1 construct: endogenous in cells; host or cells: HEK293 and/or SH-SY5Y
T1 sequence (P23526 2-432 limits assumed): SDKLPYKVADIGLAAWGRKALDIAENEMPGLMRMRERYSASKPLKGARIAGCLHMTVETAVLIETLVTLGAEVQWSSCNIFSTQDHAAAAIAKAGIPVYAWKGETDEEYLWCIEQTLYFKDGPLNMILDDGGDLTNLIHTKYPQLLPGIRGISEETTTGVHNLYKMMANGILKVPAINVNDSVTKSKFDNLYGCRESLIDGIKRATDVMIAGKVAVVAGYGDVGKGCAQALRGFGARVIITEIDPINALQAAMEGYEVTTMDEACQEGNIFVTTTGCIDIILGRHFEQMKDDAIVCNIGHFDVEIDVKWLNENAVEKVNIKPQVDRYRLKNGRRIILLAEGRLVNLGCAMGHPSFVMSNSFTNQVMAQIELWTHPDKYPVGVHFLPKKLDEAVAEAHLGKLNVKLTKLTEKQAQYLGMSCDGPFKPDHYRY
Excerpt: Cell-Based Assay of AHCY Inhibition
Post treatment collection of the adherent Hek293 and/or SH-SY5Y cells is also made for a viability and proliferation measure. Since the amount of secreted homocysteine is limited by the amount of SAH that is converted to homocysteine in the cells and its subsequent secretion, an EC50 measure and % inhibition relative to DMSO control cells can be made. Since the amount of secreted metabolites such as homocysteine can also be related to the absolute and cellular viability, an MTT (3-(4,5-Dimethylthiazol-2-yl)-2,5-diphenyltetrazolium bromide) measure of proliferation and relative cytotoxicty (as compared to control conditions) may also be made.
The day before compound treatment, plate 20,000 cells (Hek293 or SH-SY5Y) in 96 well cell culture treated plates in 100 μl of cell culture media (DMEM and 10% fetal bovine serum). • 2. Add fresh media plus compound (and DMSO treated controls) for 72 hrs. • 3. Collect conditioned media for measurement of secreted homocysteine and perform viability/proliferation assay on adherent cells. Measure of Secreted Homocysteine: • 1. Add 25 μl conditioned media, standard or control in 96-well assay plate • 2. Add 25 μl internal standard • 3. Add 10 μl reduction solution • 4. […] Detection: Fluorescence: Excitation 385 DM, Emission 515 nm • v. […] ReaDMEMd absorbance at 550 nm and 690 nM. • 6. Express readout as 550 nM-690 nM.

[2] = mice; Shea et al, Neuromolecular Medicine 2004; cited from earlier work

SMILES	IC50 [1] [nM]	IC50 (AHCY) [nM]	oxidative damage and cognitive impairment [2]
Nc1ncc(F)c2c1ncn2[C@@H]1C=C[C@@H](O)[C@H]1O [Example 2, (1S, 2R, 5R)-5-(4-amino-7-fluoro-1H-imidazo[4,5-c]pyridin-1-yl)cyclopent-3-ene-1,2-diol]	17900	28.2	–
Nc1nccc2c1ncn2[C@@H]1O[C@H](CO)[C@@H](O)[C@H]1O [3-deaza-adenosine]	–	–	prevent oxidative damage and cognitive impairment
Nc1ncc(F)c2c1ncn2[C@@H]1CC[C@@H](O)[C@H]1O [Example 1, (1R,2S,3R)-3-(4-amino-7-fluoro-1H-imidazo[4,5-c]pyridin-1-yl)cyclopentane-1,2-diol]	42	1.5	–
